In assay [1] the target is T1, HDAC1 (Homo sapiens, UniProt Q13547). The assay is described as follows: biochemical. The settings on record: read-out: ka (1/Ms).
Assay [2] deals with T2, HDAC2 (Homo sapiens, UniProt Q92769). The assay is described as follows: biolayer interferometry, […] global fit. It is filed as binding.
Assay [3] addresses T3, HDAC8 (Homo sapiens, UniProt Q9BY41).
T3 sequence (Q9BY41 1-377): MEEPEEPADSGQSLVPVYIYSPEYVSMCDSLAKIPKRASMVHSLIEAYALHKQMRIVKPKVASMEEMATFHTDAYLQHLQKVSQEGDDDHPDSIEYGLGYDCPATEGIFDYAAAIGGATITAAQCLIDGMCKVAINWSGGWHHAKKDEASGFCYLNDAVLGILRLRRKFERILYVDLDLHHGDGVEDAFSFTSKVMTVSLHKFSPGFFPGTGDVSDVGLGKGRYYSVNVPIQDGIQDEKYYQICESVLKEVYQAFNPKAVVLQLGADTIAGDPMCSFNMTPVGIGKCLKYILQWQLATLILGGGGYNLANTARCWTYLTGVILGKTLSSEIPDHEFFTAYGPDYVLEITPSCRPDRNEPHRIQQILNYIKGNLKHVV
The assay is described as follows: biochemical. Particulars: read-out: ka (1/Ms).

The target of assay [4] is T1, HDAC1. The assay can be described thus: biochemical.
For assay [5], the target named is T1, HDAC1. The assay can be described thus: biolayer interferometry, […] global fit. Format: binding. Background: Biolayer interferometry detects binding as a change in optical thickness at a sensor tip.
The target in assay [6] is T2, HDAC2. The assay is described as follows: biochemical. The settings on record: read-out: kdis (1/s).
For assay [7], the target named is T2, HDAC2. The assay is described as follows: biochemical. Particulars: read-out: ka (1/Ms).
Assay [8] concerns the target T3, HDAC8. The assay is described as follows: biochemical. The settings on record: read-out: kdis (1/s).
Assay [9] concerns the target T3, HDAC8. The assay can be described thus: biolayer interferometry, […] global fit. It is filed as binding.
Assay [10] deals with T1, HDAC1. The assay can be described thus: biochemical. The settings on record: read-out: kdis (1/s).
The target of assay [11] is T3, HDAC8. The assay can be described thus: RapidFire mass spectrometry deacetylase assay. It is filed as biochemical.

Each structure is given as a SMILES string.

T1 sequence (Q13547 whole entry): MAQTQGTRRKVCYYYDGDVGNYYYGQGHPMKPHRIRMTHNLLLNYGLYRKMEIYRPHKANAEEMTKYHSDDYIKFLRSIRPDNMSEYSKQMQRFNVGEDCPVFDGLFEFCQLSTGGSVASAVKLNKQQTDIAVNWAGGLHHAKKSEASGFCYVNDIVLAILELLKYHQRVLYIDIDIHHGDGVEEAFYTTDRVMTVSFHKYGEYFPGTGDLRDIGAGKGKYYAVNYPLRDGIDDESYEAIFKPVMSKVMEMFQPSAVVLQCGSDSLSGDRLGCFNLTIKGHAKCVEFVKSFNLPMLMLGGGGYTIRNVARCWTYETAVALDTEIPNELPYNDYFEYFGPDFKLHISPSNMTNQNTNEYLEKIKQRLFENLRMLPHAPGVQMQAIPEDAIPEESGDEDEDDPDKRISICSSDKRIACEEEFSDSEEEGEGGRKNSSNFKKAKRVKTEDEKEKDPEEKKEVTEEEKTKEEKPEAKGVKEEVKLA
T2 sequence (Q92769 whole entry): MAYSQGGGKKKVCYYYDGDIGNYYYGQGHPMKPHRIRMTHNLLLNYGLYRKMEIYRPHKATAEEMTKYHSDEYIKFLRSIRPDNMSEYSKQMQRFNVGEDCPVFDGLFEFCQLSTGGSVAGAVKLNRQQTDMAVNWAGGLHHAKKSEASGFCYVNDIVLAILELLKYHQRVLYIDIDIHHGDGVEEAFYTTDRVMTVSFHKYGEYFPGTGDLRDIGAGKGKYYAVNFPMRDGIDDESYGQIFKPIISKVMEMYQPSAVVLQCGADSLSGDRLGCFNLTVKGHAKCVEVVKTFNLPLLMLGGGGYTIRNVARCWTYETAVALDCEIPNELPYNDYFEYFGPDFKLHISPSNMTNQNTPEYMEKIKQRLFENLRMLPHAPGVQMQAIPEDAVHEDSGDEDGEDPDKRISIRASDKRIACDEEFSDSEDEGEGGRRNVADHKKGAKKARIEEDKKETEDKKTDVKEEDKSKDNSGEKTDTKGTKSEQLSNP

As a reminder, the Kd is the constant that tells how readily two partners part at equilibrium. Low readings indicate a tighter complex, high ones a looser complex. Broadly, the EC50 is the concentration needed to bring the measured effect to its halfway point. A high value points to lower potency in that assay. With `O=C(c1cc(O)c(O)c(O)c1)c1ccc(O)c(O)c1O` [Exifone, 2,3,3’,4,4’,5’-hexahydroxybenzophenone], the kon was 15500 M⁻¹ s⁻¹ in assay [1], 5050 M⁻¹ s⁻¹ in [3] and 8740 M⁻¹ s⁻¹ in [7]. Also, the Kd was determined as 142.8 ± 1 nM in [2], 94.9 ± 0.8 nM in assay [5] and 257.9 ± 1.7 nM in [9]. Besides, the EC50 amounted to 160 nM in assay [4] and 270 nM in assay [11]. Also, the koff worked out at 0.00125 s⁻¹ in assay [6], 0.0013 s⁻¹ in [8] and 0.00134 s⁻¹ in assay [10].

The record behind these values is publication doi:10.1101/2020.03.02.973636v3 (biorxiv, 2020).
